Measured values taken from PubChem BioAssay (NCI).
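Each compound was tested at five concentrations against cells in 96-well plates for 48 hours. GI50: concentration for 50% inhibition of growth. TGI is the concentration that stops growth completely.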

How the values were obtained:
Test in all cases: NCI-60 cell line screen, 48 h
HCT-15 colon = tested on: HCT-15 colon
NCI-H23 lung = tested on: NCI-H23 lung
MDA-MB-231 breast = tested on: MDA-MB-231 breast
HCC-2998 colon = tested on: HCC-2998 colon
HL-60(TB) leukemia = tested on: HL-60(TB) leukemia
T-47D breast = tested on: T-47D breast
ACHN renal = tested on: ACHN renal
UACC-257 melanoma = tested on: UACC-257 melanoma
UO-31 renal = tested on: UO-31 renal
TK-10 renal = tested on: TK-10 renal
CAKI-1 renal = tested on: CAKI-1 renal
EKVX NSCLC = tested on: EKVX NSCLC
SF-295 CNS = tested on: SF-295 CNS
SF-268 CNS = tested on: SF-268 CNS
MALME-3M melanoma = tested on: MALME-3M melanoma
SNB-19 CNS = tested on: SNB-19 CNS
SF-539 CNS = tested on: SF-539 CNS
RPMI-8226 leukemia = tested on: RPMI-8226 leukemia
OVCAR-3 ovarian = tested on: OVCAR-3 ovarian
SN12C renal = tested on: SN12C renal
BT-549 breast = tested on: BT-549 breast
HT29 colon = tested on: HT29 colon
RXF 393 renal = tested on: RXF 393 renal
A549 NSCLC = tested on: A549 NSCLC
LOX IMVI melanoma = tested on: LOX IMVI melanoma
HCT-116 colon = tested on: HCT-116 colon
UACC-62 melanoma = tested on: UACC-62 melanoma
OVCAR-5 ovarian = tested on: OVCAR-5 ovarian
COLO 205 colon = tested on: COLO 205 colon
K-562 leukemia = tested on: K-562 leukemia
SR leukemia = tested on: SR leukemia
OVCAR-4 ovarian = tested on: OVCAR-4 ovarian
PC-3 prostate = tested on: PC-3 prostate
KM12 colon = tested on: KM12 colon
NCI-H460 lung = tested on: NCI-H460 lung
SW-620 colon = tested on: SW-620 colon
SK-MEL-5 melanoma = tested on: SK-MEL-5 melanoma
IGROV1 ovarian = tested on: IGROV1 ovarian
CCRF-CEM leukemia = tested on: CCRF-CEM leukemia
NCI/ADR-RES ovarian = tested on: NCI/ADR-RES ovarian
SK-MEL-28 melanoma = tested on: SK-MEL-28 melanoma
SNB-75 CNS = tested on: SNB-75 CNS
786-0 renal = tested on: 786-0 renal
HS 578T breast = tested on: HS 578T breast
NCI-H226 lung = tested on: NCI-H226 lung
MDA-MB-435 = tested on: MDA-MB-435
M14 melanoma = tested on: M14 melanoma
HOP-92 NSCLC = tested on: HOP-92 NSCLC
SK-MEL-2 melanoma = tested on: SK-MEL-2 melanoma
U251 CNS = tested on: U251 CNS
HOP-62 NSCLC = tested on: HOP-62 NSCLC
SK-OV-3 ovarian = tested on: SK-OV-3 ovarian
OVCAR-8 ovarian = tested on: OVCAR-8 ovarian
A498 renal = tested on: A498 renal
MOLT-4 leukemia = tested on: MOLT-4 leukemia
MCF7 breast = tested on: MCF7 breast
DU-145 prostate = tested on: DU-145 prostate
NCI-H522 lung = tested on: NCI-H522 lung

What does the source list for `COc1cc2ncnc(-n3ncc4cc(NC(=O)Nc5ccc(Cl)c(Cl)c5)ccc43)c2cc1OC`?
GI50 (HCT-15 colon): 1.93 µM; TGI (HCT-15 colon): 4.87 µM; GI50 (NCI-H23 lung): 1.93 µM; TGI (NCI-H23 lung): 4.24 µM; GI50 (MDA-MB-231 breast): 1.96 µM; TGI (MDA-MB-231 breast): 4.03 µM; GI50 (HCC-2998 colon): 2.61 µM; TGI (HCC-2998 colon): 8.87 µM; GI50 (HL-60(TB) leukemia): 4.44 µM; TGI (HL-60(TB) leukemia): 85 µM; GI50 (T-47D breast): 2.39 µM; TGI (T-47D breast): 7.17 µM; GI50 (ACHN renal): 1.45 µM; TGI (ACHN renal): 3.25 µM; GI50 (UACC-257 melanoma): 3.23 µM; TGI (UACC-257 melanoma): 6.79 µM; GI50 (UO-31 renal): 2.04 µM; TGI (UO-31 renal): 4.17 µM; GI50 (TK-10 renal): 2.38 µM; TGI (TK-10 renal): 6.45 µM; GI50 (CAKI-1 renal): 2.3 µM; TGI (CAKI-1 renal): 5.94 µM; GI50 (EKVX NSCLC): 3.06 µM; TGI (EKVX NSCLC): 9.84 µM; GI50 (SF-295 CNS): 1.38 µM; TGI (SF-295 CNS): 2.94 µM; GI50 (SF-268 CNS): 2.44 µM; TGI (SF-268 CNS): 7.32 µM; GI50 (MALME-3M melanoma): 1.72 µM; TGI (MALME-3M melanoma): 3.89 µM; GI50 (SNB-19 CNS): 2.66 µM; TGI (SNB-19 CNS): 9.58 µM; GI50 (SF-539 CNS): 0.612 µM; TGI (SF-539 CNS): 2.47 µM; GI50 (RPMI-8226 leukemia): 2.11 µM; TGI (RPMI-8226 leukemia): 7.52 µM; GI50 (OVCAR-3 ovarian): 1.92 µM; TGI (OVCAR-3 ovarian): 3.7 µM; GI50 (SN12C renal): 2.1 µM; TGI (SN12C renal): 4.78 µM; GI50 (BT-549 breast): 1.97 µM; TGI (BT-549 breast): 4.17 µM; GI50 (HT29 colon): 1.98 µM; TGI (HT29 colon): 4.29 µM; GI50 (RXF 393 renal): 1.53 µM; TGI (RXF 393 renal): 3.29 µM; GI50 (A549 NSCLC): 2.69 µM; TGI (A549 NSCLC): 5.75 µM; GI50 (LOX IMVI melanoma): 1.97 µM; TGI (LOX IMVI melanoma): 3.76 µM; GI50 (HCT-116 colon): 2.8 µM; TGI (HCT-116 colon): 10.3 µM; GI50 (UACC-62 melanoma): 1.7 µM; TGI (UACC-62 melanoma): 3.44 µM; GI50 (OVCAR-5 ovarian): 1.83 µM; TGI (OVCAR-5 ovarian): 4.31 µM; GI50 (COLO 205 colon): 2.32 µM; TGI (COLO 205 colon): 5.58 µM; GI50 (K-562 leukemia): 3.02 µM; TGI (K-562 leukemia): 10.8 µM; GI50 (SR leukemia): 2.75 µM; TGI (SR leukemia): > 100 µM; GI50 (OVCAR-4 ovarian): 1.92 µM; TGI (OVCAR-4 ovarian): 3.89 µM; GI50 (PC-3 prostate): 1.55 µM; TGI (PC-3 prostate): 3.24 µM; GI50 (KM12 colon): 0.0514 µM; TGI (KM12 colon): 9.66 µM; GI50 (NCI-H460 lung): 2.08 µM; TGI (NCI-H460 lung): 4.57 µM; GI50 (SW-620 colon): 2.26 µM; TGI (SW-620 colon): 4.76 µM; GI50 (SK-MEL-5 melanoma): 2.09 µM; TGI (SK-MEL-5 melanoma): 3.89 µM; GI50 (IGROV1 ovarian): 2.05 µM; TGI (IGROV1 ovarian): 4.66 µM; GI50 (CCRF-CEM leukemia): 4.01 µM; TGI (CCRF-CEM leukemia): 42.3 µM; GI50 (NCI/ADR-RES ovarian): 2.36 µM; TGI (NCI/ADR-RES ovarian): 6.23 µM; GI50 (SK-MEL-28 melanoma): 1.57 µM; TGI (SK-MEL-28 melanoma): 3.24 µM; GI50 (SNB-75 CNS): 1.24 µM; TGI (SNB-75 CNS): 3.41 µM; GI50 (786-0 renal): 1.56 µM; TGI (786-0 renal): 3.52 µM; GI50 (HS 578T breast): 2 µM; TGI (HS 578T breast): 7.95 µM; GI50 (NCI-H226 lung): 2.45 µM; TGI (NCI-H226 lung): 4.8 µM; GI50 (MDA-MB-435): 1.84 µM; TGI (MDA-MB-435): 4.29 µM; GI50 (M14 melanoma): 1.65 µM; TGI (M14 melanoma): 3.58 µM; GI50 (HOP-92 NSCLC): 1.92 µM; TGI (HOP-92 NSCLC): 4.19 µM; GI50 (SK-MEL-2 melanoma): 2.31 µM; TGI (SK-MEL-2 melanoma): 5.01 µM; GI50 (U251 CNS): 1.5 µM; TGI (U251 CNS): 3.06 µM; GI50 (HOP-62 NSCLC): 1.91 µM; TGI (HOP-62 NSCLC): 3.76 µM; GI50 (SK-OV-3 ovarian): 2.04 µM; TGI (SK-OV-3 ovarian): 4.03 µM; GI50 (OVCAR-8 ovarian): 2.77 µM; TGI (OVCAR-8 ovarian): 7.07 µM; GI50 (A498 renal): 2.37 µM; TGI (A498 renal): 6.24 µM; GI50 (MOLT-4 leukemia): 2.04 µM; TGI (MOLT-4 leukemia): 11.4 µM; GI50 (MCF7 breast): 1.85 µM; TGI (MCF7 breast): 4.56 µM; GI50 (DU-145 prostate): 3.2 µM; TGI (DU-145 prostate): 11.9 µM; GI50 (NCI-H522 lung): 2.5 µM; TGI (NCI-H522 lung): 6 µM
